For the assay, the target named is T1, p38 (Homo sapiens, UniProt Q16539).
T1 construct: made in house
The experiment in a line: Protein Kinase Assay (33P incorporation from γ-[33P]ATP into GST-ATF-2 substrate). It is filed as biochemical. Particulars: for inhibition at 10 µM: compound at 10 μM. The gist of the method: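 Non-activated human p38 (10 nM) was preincubated with compounds for 20 min at 30° C, then GST-ATF-2 (aa 19-96) and γ-[33P]ATP were added for 70 min at 30° C. Reactions were stopped with phosphoric acid; phosphorylated substrate was captured on phosphocellulose and scintillation-counted.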

The mark [1] stands for this setting: compound at 3 μM (noted beside the value in Table 1), read-out: Protein Kinase (% Inhibition).
Setting [2] is: compound at 3 μM, read-out: Protein Kinase (% Inhibition at 3 μM).

As usually defined, the inhibition is the percentage by which the read-out fell short of the control.

Where two headings read alike, the source gives them in different places.

T1 sequence (Q16539 whole entry): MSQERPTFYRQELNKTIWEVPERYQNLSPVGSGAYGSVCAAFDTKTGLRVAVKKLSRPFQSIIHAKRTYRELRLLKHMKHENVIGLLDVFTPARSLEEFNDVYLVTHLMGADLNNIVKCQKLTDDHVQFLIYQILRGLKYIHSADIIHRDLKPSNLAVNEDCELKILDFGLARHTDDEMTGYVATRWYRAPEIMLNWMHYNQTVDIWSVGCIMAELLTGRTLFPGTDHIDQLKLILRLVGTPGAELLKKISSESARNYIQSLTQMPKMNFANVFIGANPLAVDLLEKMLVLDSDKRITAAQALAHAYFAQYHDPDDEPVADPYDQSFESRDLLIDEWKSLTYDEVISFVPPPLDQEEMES

Compound `CC(C)(C)c1cc(C(=O)N2CC[S+]([O-])CC2)c(NC(=O)Nc2cccc3ccccc23)s1` [Example 22, 1-[5-tert-butyl-3-(1-oxo-1λ^4-thiomorpholine-4-carbonyl)thiophen-2-yl]-3-naphthalen-1-ylurea] came in with an inhibition at 10 µM of 26 to 50%. As to `CC(C)(C)c1cc(C(=O)N2CCNS(=O)(=O)CC2)c(NC(=O)Nc2cccc3ccccc23)s1` [Example 37, 1-[5-tert-butyl-3-(1,1-dioxo-1λ^6-[1,2,5]thiadiazepane-5-carbonyl)thiophen-2-yl]-3-naphthalen-1-ylurea], the inhibition at 3 µM under setting [1] fell in the range of 51 to 75%. `CC(C)(C)c1cc(NC(=O)Nc2ccc(Cl)cc2)c(CN2CCS(=O)(=O)CC2)s1` [Example 15, 1-[5-tert-butyl-2-(1,1-dioxo-1λ^6-thiomorpholin-4-ylmethyl)thiophen-3-yl]-3-(4-chlorophenyl)urea]: the inhibition at 10 µM lay within 51 to 75%. With `CC(C)(C)c1cc(C(=O)N2CCNC(=O)CC2)c(NC(=O)Nc2ccc(Cl)cc2)s1` [Example 46, 1-[5-tert-butyl-3-(5-oxo-[1,4]diazepane-1-carbonyl)thiophen-2-yl]-3-(4-chloro-phenyl)urea], the inhibition at 3 µM under setting [2] was in the range of 76 to 100%. Regarding `CC(C)(C)c1nc(C(=O)N2CCNS(=O)(=O)CC2)c(NC(=O)Nc2cccc3ccccc23)s1` [Example 80, 1-[2-tert-butyl-4-(1,1-dioxo-1λ^6-[1,2,5]thiadiazepane-5-carbonyl)thiazol-5-yl]-3-naphthalen-1-ylurea], under setting [2], the inhibition at 3 µM was in the range of 76 to 100%.

As to `CC(C)(C)c1cc(C(=O)N2CCS(=O)(=O)CC2)c(NC(=O)Nc2ccc(C#N)cc2C(F)(F)F)s1` [Example 84, 1-[5-tert-butyl-3-(1,1-dioxo-1λ^6-thiomorpholine-4-carbonyl)thiophen-2-yl]-3-(4-cyano-2-trifluoromethylphenyl)urea], the inhibition at 3 µM under setting [2] lay in the range of 76 to 100%. As to `CC(C)(C)c1cc(NC(=O)Nc2ccc3ccccc3c2)c(C(=O)N2CCS(=O)(=O)CC2)s1` [Example 12, 1-[5-tert-butyl-2-(1,1-dioxo-1λ^6-thiomorpholine-4-carbonyl)thiophen-3-yl]-3-naphthalen-2-ylurea], the inhibition at 10 µM is 76 to 100%. For the compound `CC(C)(C)c1cc(NC(=O)Nc2cccc3ccccc23)n(CC(=O)N2CCS(=O)(=O)CC2)n1` [Example 9, 1-{5-tert-butyl-2-[2-(1,1-dioxo-1λ^6-thiomorpholin-4-yl)-2-oxoethyl]-2H-pyrazol-3-yl}-3-naphthalen-1-ylurea], the inhibition at 10 µM is 51 to 75%. On to `CC(C)(C)c1cc(CN2CCS(=O)(=O)CC2)c(NC(=O)Nc2cccc3ccccc23)s1` [Example 5, 1-[5-tert-butyl-3-(1,1-dioxo-1λ^6-thiomorpholin-4-ylmethyl)thiophen-2-yl]-3-naphthalen-1-ylurea], for which the inhibition at 10 µM is 76 to 100%. The same measure, in the same setting: then `CC(C)(C)c1cc(C(=O)N2CCS(=O)(=O)CC2)c(NC(=O)Nc2ccc(O)c3ccccc23)s1` [Example 34, 1-[5-tert-butyl-3-(1,1-dioxo-1λ^6-thiomorpholine-4-carbonyl)thiophen-2-yl]-3-(4-hydroxynaphthalen-1-yl)urea], with 76 to 100%. On to `CC(C)(C)c1cc(C(=O)N2CCS(=O)(=O)CC2)c(NC(=O)Nc2ccc3ocnc3c2)s1` [Example 71, 1-Benzoxazol-5-yl-3-[5-tert-butyl-3-(1,1-dioxo-1λ^6-thiomorpholine-4-carbonyl)thiophen-2-yl]urea], for which the inhibition at 3 µM under setting [2] lay in the range of 76 to 100%. `CC(C)(C)c1cc(NC(=O)Nc2ccc3ccccc3c2)c(CN2CCS(=O)(=O)CC2)s1` [Example 13, 1-[5-tert-butyl-2-(1,1-dioxo-1λ^6-thiomorpholin-4-ylmethyl)thiophen-3-yl]-3-naphthalen-2-ylurea] had an inhibition at 10 µM of 26 to 50%.

As to `CC(C)(C)c1cc(C(=O)N2CCS(=O)(=O)CC2)c(NC(=O)Nc2cccc3nc[nH]c23)s1` [Example 42, 1-(3H-Benzimidazol-4-yl)-3-[5-tert-butyl-3-(1,1-dioxo-1λ^6-thiomorpholine-4-carbonyl)thiophen-2-yl]urea], the inhibition at 3 µM under setting [1] was in the range of 76 to 100%. Regarding `CC(C)(C)c1cc(C(=O)N2CCS(=O)(=O)CC2)c(NC(=O)Nc2ccc(C#N)c(Cl)c2)s1` [Example 64, 1-[5-tert-butyl-3-(1,1-dioxo-1λ^6-thiomorpholine-4-carbonyl)thiophen-2-yl]-3-(3-chloro-4-cyanophenyl)urea], under setting [2], the inhibition at 3 µM was 51 to 75%.

As to `CC(C)(C)c1cc(C(=O)N2CCS(=O)(=O)CC2)c(NC(=O)Nc2ccc(C#N)cc2Cl)s1` [Example 76, 1-[5-tert-butyl-3-(1,1-dioxo-1λ^6-thiomorpholine-4-carbonyl)thiophen-2-yl]-3-(2-chloro-4-cyanophenyl)urea], under setting [2], the inhibition at 3 µM is 76 to 100%. On to `CC(C)(C)c1cc(CN2CCS(=O)(=O)CC2)c(NC(=O)Nc2ccc3ccccc3c2)s1` [Example 6, 1-[5-tert-butyl-3-(1,1-dioxo-1λ^6-thiomorpholin-4-ylmethyl)thiophen-2-yl]-3-naphthalen-2-ylurea], for which the inhibition at 10 µM is 76 to 100%. Take `CC(C)(C)c1cc(C(=O)N2CCS(=O)(=O)CC2)c(NC(=O)Nc2ccc3ccccc3c2)s1` [Example 4, 1-[5-tert-butyl-3-(1,1-dioxo-1λ^6-thiomorpholine-4-carbonyl)thiophen-2-yl]-3-naphthalen-2-ylurea]: the inhibition at 10 µM fell in the range of 76 to 100%. Take `CN(CCS(C)(=O)=O)C(=O)c1cc(C(C)(C)C)sc1NC(=O)Nc1cccc2ccccc12` [Example 82, 1-(3-(N-methyl-N-(2-(methylsulfonyl)ethyl)carbamoyl)-5-tert-butylthiophen-2-yl)-3-(naphthalen-1-yl)urea]: under setting [2], the inhibition at 3 µM lay within 76 to 100%.

As to `CC(C)(C)c1cc(C(=O)N2CCS(=O)(=O)CC2)c(NC(=O)Nc2ccc3c(c2)OCO3)s1` [Example 60, 1-Benzo[1,3]dioxol-5-yl-3-[5-tert-butyl-3-(1,1-dioxo-1λ^6-thiomorpholine-4-carbonyl)thiophen-2-yl]urea], the inhibition at 3 µM under setting [2] fell in the range of 76 to 100%. As for `CC1C(=O)NCCN1C(=O)c1cc(C(C)(C)C)sc1NC(=O)Nc1ccc(Cl)cc1` (stereo not drawn) [Example 78, 1-[5-tert-butyl-3-(2-methyl-3-oxopiperazine-1-carbonyl)thiophen-2-yl]-3-(4-chlorophenyl)urea], the inhibition at 3 µM under setting [2] was in the range of 76 to 100%.

Regarding `CC(C)(C)c1cc(C(=O)N2CCNC(=O)CC2)c(NC(=O)Nc2cccc(Cl)c2Cl)s1` [Example 53, 1-[5-tert-butyl-3-(5-oxo-[1,4]diazepane-1-carbonyl)thiophen-2-yl]-3-(2,3-dichlorophenyl)urea], under setting [2], the inhibition at 3 µM was in the range of 76 to 100%. In the case of `CC(C)(C)c1cc(C(=O)N2CCNS(=O)(=O)CC2)c(NC(=O)Nc2ccc(C#N)cc2Cl)s1` [Example 92, 1-[5-tert-Butyl-3-(1,1-dioxo-1λ^6-[1,2,5]thiadiazepane-5-carbonyl)thiophen-2-yl]-3-(4-cyano-2-chlorophenyl)urea], the inhibition at 3 µM under setting [2] was 76 to 100%. Take `Cn1ccc(NC(=O)Nc2sc(C(C)(C)C)cc2C(=O)N2CCS(=O)(=O)CC2)n1` [Example 69, 1-[5-tert-butyl-3-(1,1-dioxo-1λ^6-thiomorpholine-4-carbonyl)thiophen-2-yl]-3-(1-methyl-1H-pyrazol-3-yl)urea]: the inhibition at 3 µM under setting [2] lay within 0 to 25%. On the same count and under the same terms, then `CC(C)(C)c1cc(C(=O)N2CCS(=O)(=O)CC2)c(NC(=O)Nc2ccc(C#N)c(C(F)(F)F)c2)s1` [Example 65, 1-[5-tert-butyl-3-(1,1-dioxo-1λ^6-thiomorpholine-4-carbonyl)thiophen-2-yl]-3-(4-cyano-3-trifluoromethylphenyl)urea], with 26 to 50%.

These data come from patent US7741479B2, “Urea inhibitors of MAP kinases” (Locus Pharmaceuticals, Inc., priority 2004, dated 2010).
